Data taken from publication PMC10175687 (Frontiers in Pharmacology, 2023).
Like-named read-outs stand apart in the source and are kept apart here.

Assays:
[1] = set-up: method as in 2 sources, one per row (each row's own in cited_ref): ref Rowland, 1990; Rybak, 2006; Cavalcanti et al., 2010 ||| ref EMA., 2022; settings: cited from earlier work; for half-life: ref Rowland, 1990, Rybak, 2006, Cavalcanti et al., 2010
[2] = set-up: method as in Rowland, 1990; Rybak, 2006; Cavalcanti et al., 2010; settings: ref Rowland, 1990, Rybak, 2006, Cavalcanti et al., 2010, cited from earlier work
[3] = set-up: species or system human; settings: in vivo
Description: This was a prospective, open-label PPK study conducted in the ICU department of Peking University First Hospital. […] Pregnant and lactating patients, patients with special sites (endocardium, bone, joints, etc.) infections, or those who received any special treatment that may affect drug elimination, such as renal replacement therapy, were excluded.
The infusion duration was 30–60 min. […] Additionally, in 1/3 patients, 2 mL more blood sample was collected immediately after the 5th infusion; in the other 1/3 patients, 2 mL more blood sample was collected 1 h after the 5th dose, and in the remaining 1/3 patients, 2 mL more concentration sample was taken 1 h before the 6th dose. All blood samples were collected in blood collection tubes anticoagulated by ethylene diamine tetra acetic acid (EDTA) for concentration determination.
Blood samples were centrifuged within 12 h to obtain plasma. Then, 0.4 mL plasma samples were added with 0.05 mL internal standard solution (piperacillin sodium 0.15 mg/mL). Consequently, 0.6 mL acetonitrile was added, and the sample was vigorously shaken for 1 min and centrifuged at 12,000 r/min for 5 min. Then, 0.9 mL of the supernatant was transferred to a centrifuge tube, and 0.4 mL of dichloromethane was added. The solution was vigorously shaken for 1 min and centrifuged at 12,000 r/min for 5 min. The supernatant was then transferred into a vial for detection. HPLC detection conditions were as follows: Waters Symmetry C18 column (250 × 4.6 mm, 5 μm); mobile phase: 0.01 mol/L NaH2PO4 (pH = 3.3)-acetonitrile (75:25), isocratic elution; detection wavelength: 240 nm; flow rate: 1.0 mL/min; injection volume: 0.020 mL; column temperature: 35 °C ([Dong et al., 2011]). […] The above analytical method has passed the methodological verification. […] In terms of sensitivity, the signal-to-noise ratio (S/N) of the LOQ was >10. The relative standard deviations (RSDs) of the intra-day and inter-day precision of simulated plasma samples with high, medium and low concentrations were all less than 10%, and the intra-day and inter-day accuracies were 91.01%–101.13% and 92.98%–98.99%, respectively. […] The stability of simulated plasma samples with high, medium and low concentrations was good after being placed at room temperature for 4 h, frozen and thawed 3 times and stored at −80°C for 60 days, respectively, with the RSDs of tested samples all less than 10%.
The model was established in a stepwise manner. In the basic model screening process, one-, two- and three-compartment models with additive, proportional and mixed error were tested respectively, and the basic model was selected by the objective function value (OFV) and visual diagnostic plots ([Gao et al., 2020]). The model parameters were assumed to follow a log-normal distribution, and the inter-individual variability for each structural parameter was modeled using the following equation: Pi=PTV×Exp ηi (1) where P i represents parameters for the i th individual, P TV are the typical values of the parameters, and η i are random variables with zero mean and variance of ω^2.
Demographic and clinical characteristics that were considered plausible for affecting teicoplanin PK were tested as covariates, including sex, age, height, weight, BMI, ALT, AST, TBIL, DBIL, TP, ALB, WBC, Scr, GFR, and BUN. Individual PK estimates obtained from the selected structural model were firstly plotted against covariate values to assess relationships ([Byrne et al., 2017]). When a relationship between the covariate and the PK parameter was observed, the covariate was tested for inclusion into the PPK model. […]

CN[C@H](CC(C)C)C(=O)N[C@H]1C(=O)N[C@@H](CC(N)=O)C(=O)N[C@H]2C(=O)N[C@H]3C(=O)N[C@H](C(=O)N[C@H](C(=O)O)c4cc(O)cc(O)c4-c4cc3ccc4O)[C@H](O)c3ccc(c(Cl)c3)Oc3cc2cc(c3O[C@@H]2O[C@H](CO)[C@@H](O)[C@H](O)[C@H]2O[C@H]2C[C@](C)(N)[C@H](O)[C@H](C)O2)Oc2ccc(cc2Cl)[C@H]1O [vancomycin]
half-life ([1]; vancomycin, adults with normal renal function): 6 to 12 h | plasma protein binding rate ([2]; vancomycin): 30%–55%

teicoplanin
renal clearance ([1]; ref EMA., 2022): 0.13 to 0.2 mL/min/kg | total clearance ([1]; ref EMA., 2022): 0.167 to 0.233 mL/min/kg | half-life ([1]; teicoplanin): 100 to 170 h | dose administered recovered in feces (via bile excretion) ([1]; within 8 days after administration, ref EMA., 2022): 2.7% | unchanged teicoplanin excreted by the urinary route ([1]; within 16 days, ref EMA., 2022): 80% | plasma protein binding rate ([2]; teicoplanin): about 90% | Q, Estimate (RSE%) [3]: 3.12 (10.9) L/h | Q, bootstrap median (95% PI) [3]: 3.14 (2.62–3.90) L/h | V1, Estimate (RSE%) [3]: 20.1 (12.9) L | V1, bootstrap median (95% PI) [3]: 19.8 (16.1–26.2) L | V2, Estimate (RSE%) [3]: 101 (12.7) L | V2, bootstrap median (95% PI) [3]: 98.2 (77.5–122.2) L | θCL_GFR, Estimate (RSE%) [3]: 0.437 (23.8) | θCL_GFR, bootstrap median (95% PI) [3]: 0.441 (0.234–0.740) | CL, Estimate (RSE%) ([3]; iv): 1.03 (16.6) L/h
